From patent US20090325913A1, “Treatment of pain using satraplatin” (priority 2006, published 2009)

How the values were obtained:
[1] = tested on: patients with metastatic prostatic carcinoma; settings: single agent; cited from earlier work
[2] = tested on: human lung cancer cells; settings: cited from earlier work
[3] = tested on: prostate cancer cell lines PC-3, DU 145 and LNCaP; settings: cited from earlier work
[4] = tested on: mismatch repair-proficient and mismatch repair-deficient cell lines; settings: cited from earlier work
[5] = tested on: human tumor cell lines with different sensitivities to cisplatin; settings: at equimolar basis; cited from earlier work
[6] = tested on: CYP enzymes (cytochrome P450 system); assay: Inhibition of CYP enzymes; type: in vitro ADME
Text: This may result in increased toxicity of certain drugs (see Appendix 5). Patients will be monitored closely for drug interactions or adverse reactions to concomitant medications. Investigators are cautioned to adjust concomitant medication dosages appropriately.

Structure (SMILES)	efficacy [1]	effect on radiation response [2]	effect of treatment on prostate cancer cells [3]	sensitivity of androgen-insensitive PC-3 and DU 145 vs androgen-sensitive LNCaP [3]	difference in sensitivity between mismatch repair-proficient and -deficient cell lines [4]	levels of platinum-DNA adducts compared to cisplatin [5]	inhibition of CYP enzymes [6]
N.N.[Cl][Pt][Cl] [cisplatin]	not effective						
CC(=O)[O][Pt]([NH2])([Cl])([Cl])([NH]C1CCCCC1)[O]C(C)=O [satraplatin, bis(acetato)ammine dichloro(cyclohexylamine)platinum (IV)]		can potentiate the effects of radiation	tumor cell kill	more sensitive	no difference in sensitivity	lower levels of platinum-DNA adducts	strong inhibitor
N.NC1CCCCC1.[Cl-].[Cl-].[Pt+2] [JM118, reference compound]			tumor cell kill				
